Results as given in patent US20130317067A1, “PESTICIDAL MIXTURES WITH IMPROVED PROPERTIES” (BAYER INTELLECTUAL PROPERTY GMBH, priority 2010, published 2013).

What was measured:
Assay type in all cases: in vivo
[1] = tested on: green peach aphid (Myzus persicae); assay: Myzus persicae test (oil seed rape seed treatment)
Experimental: (§1) The expected efficacy of a given combination of two compounds is calculated as follows (see Colby, S. R., “Calculating Synergistic and antagonistic Responses of Herbicide Combinations”, Weeds 15, pp. 20-22, 1967):
(§2) If • X is the efficacy expressed in % mortality of the untreated control for test compound A at a concentration of m ppm respectively m g/ha, • Y is the efficacy expressed in % mortality of the untreated control for test compound B at a concentration of n ppm respectively n g/ha, • E is the efficacy expressed in % mortality of the untreated control using the mixture of A and B at m and n ppm respectively m and n g/ha, then is
(§3) If the observed insecticidal efficacy of the combination is higher than the one calculated as “E”, then the combination of the two compounds is more than additive, i.e., there is a synergistic effect.
(§4) If not mentioned otherwise, the crystalline modification I of 4-{[(6-chloropyrid-3-yl)methyl](methyl)amino}furan-2(5H)-one has been prepared as a water-dispersible or water-soluble powder in an active ingredient concentration of 70% (wt/wt) involving the following formulation auxiliaries, whereas the amount of auxiliaries sums up to 100 wt. %:
(§5) The auxiliaries were mixed with the appropriate amount of the crystalline modification I of 4-{[(6-chloropyrid-3-yl)methyl](methyl)amino}furan-2(5H)-one. There is no water or solvent added. To enable the dry mixture to stick on the seed, the seed were treated with a minimal amount of water, namely […] for 2 g canola seeds, and 800 μl für 20 g cotton seeds
(§6) Seeds of Oil seed rape were treated with the compounds or mixtures and sown. Ca. 35 days after germination the plants were infested with a mixed population of the green peach aphid (Myzus persicae). After the specified period of time, the mortality in % is determined. 100% means that all the aphids have been killed; 0% means that none of the aphids have been killed.

[2] = tested on: larvae of the mustard beetle (Phaedon cochleariae); assay: Phaedon cochleariae larvae test (oil seed rape seed treatment)
Experimental: as §1, §2, §3, §4, §5
as §6, with “larvae” for “mixed population”, “mustard beetle (Phaedon cochleariae).” for “green peach aphid (Myzus persicae).”, “beetle larvae” for “aphids”

[3] = tested on: cotton aphid (Aphis gossypii); assay: Aphis gossypii test (cotton seed treatment)
Experimental: as §1, §2, §3, §4, §5
as §6, with “Cotton seeds” for “Seeds of Oil seed rape”, “10” for “Ca. 35”, “cotton” for “green peach”, “(Aphis gossypii).” for “(Myzus persicae).”

**Q.** For `CN(Cc1ccc(Cl)nc1)C1=CC(=O)OC1` [4-{[(6-chloropyrid-3-yl)methyl](methyl)amino}furan-2(5H)-one], which “Kill rate [in % after 2 days]” value ([1]; 0.01 mg ai/grain) is on record?
**A.** The value was 10%.

**Q.** And the “Kill rate [in % after 7 days]” value ([1]; 0.01 mg ai/grain)?
**A.** The value was 0%.

**Q.** What about the “Kill rate [in % after 3 days]” value ([1]; 0.025 mg ai/grain) of the same compound?
**A.** Its value is 0%.

**Q.** What about the “Kill rate [in % after 4 days]” value ([2]; 0.01 mg ai/grain) of the same compound?
**A.** The value was 0%.

**Q.** What about the “Kill rate [in % after 5 days]” value ([2]; 0.025 mg ai/grain) of the same compound?
**A.** The value was 5.56%.

**Q.** What about the “Kill rate [in % after 2 days]” value ([3]; 0.01 mg ai/grain) of the same compound?
**A.** The value was 63%.

**Q.** What about the “Kill rate [in % after 1 day]” value ([3]; 0.025 mg ai/grain) of the same compound?
**A.** The value was 0%.

**Q.** And the “Kill rate [in % after 2 days]” value ([3]; 0.025 mg ai/grain)?
**A.** The value was 80%.

**Q.** How did the “Kill rate [in % after 2 days]” value ([3]; 0.5 mg ai/grain) turn out when `Cn1cc(C(=O)Nc2ccc(F)cc2-c2ccc(Cl)c(Cl)c2)c(C(F)F)n1` [Bixafen] was run?
**A.** The value was 0%.

**Q.** How did the “Kill rate [in % after 1 day]” value ([3]; 0.5 mg ai/grain) turn out when `CCC1(C(=O)N[C@H](C)c2ccc(Cl)cc2)C(C)C1(Cl)Cl` (some centres unmarked) [Carpropamid] was run?
**A.** Its value is 0%.

**Q.** How did the “Kill rate [in % after 3 days]” value ([1]; 0.5 mg ai/grain) turn out when `CSC1=N[C@@](C)(c2ccccc2)C(=O)N1Nc1ccccc1` [Fenamidone] was run?
**A.** The value was 0%.

**Q.** And the “Kill rate [in % after 7 days]” value ([1]; 0.5 mg ai/grain)?
**A.** The value was 0%.

**Q.** With `CC1(C(=O)Nc2ccc(O)c(Cl)c2Cl)CCCCC1` [Fenhexamid] as the compound, how does the “Kill rate [in % after 2 days]” value ([3]; 0.5 mg ai/grain) read?
**A.** The value was 0%.

**Q.** For `N#Cc1c[nH]cc1-c1cccc2c1OC(F)(F)O2` [Fluodioxonil, Fludioxonil], which “Kill rate [in % after 4 days]” value ([2]; 05 mg ai/grain (so in the source)) is on record?
**A.** Its value is 0%.

**Q.** For `O=C(NCc1ncc(C(F)(F)F)cc1Cl)c1c(Cl)cccc1Cl` [Fluopicolide], which “Kill rate [in % after 5 days]” value ([2]; 1 mg ai/grain) is on record?
**A.** Its value is 0%.

**Q.** How did the “Kill rate [in % after 2 days]” value ([1]; 1 mg ai/grain) turn out when `CCO[PH](=O)O` [Fosetyl-Al] was run?
**A.** The value was 0%.

**Q.** For `CON=C(C(=O)OC)c1ccccc1CON=C(C)c1cccc(C(F)(F)F)c1` [Trifloxystrobin], which “Kill rate [in % after 1 day]” value ([3]; 0.5 mg ai/grain) is on record?
**A.** The value was 0%.
